Ends that are not written are not given here.
Columns and labels:
[1] = biological target: T1, TLR4 (Mus musculus, UniProt Q9QUK6); test: Cytokine secretion (ELISA) in LPS-stimulated RAW264.7 cells; assay type: cell-based; conditions: FIG. 2E
T1 construct: endogenous in cells; host or cells: RAW264.7
T1 sequence (Q9QUK6 26-835): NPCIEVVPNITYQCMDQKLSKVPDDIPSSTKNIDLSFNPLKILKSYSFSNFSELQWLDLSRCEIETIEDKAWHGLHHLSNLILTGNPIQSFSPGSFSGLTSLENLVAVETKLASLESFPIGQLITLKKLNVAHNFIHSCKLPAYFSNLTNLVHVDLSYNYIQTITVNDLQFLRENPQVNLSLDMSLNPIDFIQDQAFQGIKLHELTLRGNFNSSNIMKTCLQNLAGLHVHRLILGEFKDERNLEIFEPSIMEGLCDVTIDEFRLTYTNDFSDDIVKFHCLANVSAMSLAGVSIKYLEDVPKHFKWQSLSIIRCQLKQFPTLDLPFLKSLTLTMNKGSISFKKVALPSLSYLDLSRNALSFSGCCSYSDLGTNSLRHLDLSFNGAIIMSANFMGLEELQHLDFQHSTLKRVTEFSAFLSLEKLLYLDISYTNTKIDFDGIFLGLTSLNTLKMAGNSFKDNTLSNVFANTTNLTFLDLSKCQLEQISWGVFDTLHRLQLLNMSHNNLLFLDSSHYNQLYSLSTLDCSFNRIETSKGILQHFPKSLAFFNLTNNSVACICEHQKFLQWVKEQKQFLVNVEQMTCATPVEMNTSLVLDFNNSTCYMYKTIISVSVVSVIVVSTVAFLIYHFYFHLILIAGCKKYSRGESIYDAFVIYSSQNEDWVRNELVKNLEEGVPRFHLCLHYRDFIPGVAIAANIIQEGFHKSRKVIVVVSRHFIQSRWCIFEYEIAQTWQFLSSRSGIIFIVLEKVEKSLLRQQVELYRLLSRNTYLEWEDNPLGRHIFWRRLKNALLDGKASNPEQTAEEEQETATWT
T1 sequence (Q9JHF9 19-160 partner): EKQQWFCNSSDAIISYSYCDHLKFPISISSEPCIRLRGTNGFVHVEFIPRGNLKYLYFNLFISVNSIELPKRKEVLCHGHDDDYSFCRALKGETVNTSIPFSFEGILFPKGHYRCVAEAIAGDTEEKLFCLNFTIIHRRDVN
Protocol: THP-1-derived macrophages and RAW264.7 cells were dispensed into 96-well plates (BD Biosciences) at a density of 2×10^5 cells/well and cultured overnight. After 24 hours of treatment, IL-6 secretion was analyzed using Mouse IL-6 ELISA MAX™ Deluxe (BioLegend, San Diego, Calif., USA), and TNF-α production was evaluated using the Mouse TNF alpha ELISA Ready-SET-GO!® kit (eBioscience, San Diego, Calif., USA). Then, the plate was analyzed at each wavelength using a microplate spectrophotometer system (Molecular Devices).

[2] = test system: RAW264.7 cells; test: Cell viability assay (MTT/MTS), RAW264.7 cells; assay type: cell-based, mouse; conditions: concentration of 50 μM or below; FIG. 2B
Protocol: (§1) HEK-BLUE™ hTLR4 cells were dispensed at a density of 5×10^4 cells/well, and RAW264.7 cells and THP-1 cells were dispensed thereinto at a density of 2×10^5 cells/well. All cells were cultured overnight in 96-well plates (BD Biosciences, San Jose, Calif., USA). Cell viability was determined using colorimetric […] (MTT) assay (Sigma-Aldrich) and/or MTS (3-(4,5-dimethylthiazol-2-yl)-5-(3-carboxymethoxyphenyl)-2-(4-sulfophenyl)-2H-tetrazolium) (Promega Madison, Wis., USA), which was performed as described previously (Kwon, H. K. et al., Toxicological sciences: an official journal of the Society of Toxicology 148, 204-219 (2015)).

[3] = test system: HEK-Blue™ hTLR4 cells; test: Cell viability assay (MTT/MTS), HEK-BLUE hTLR4 cells; assay type: cell-based, human; conditions: FIG. 2A
Protocol: as §1

[4] = test system: IMQ-induced psoriasis in C57BL/6 mice; test: Imiquimod-induced psoriasis mouse model; assay type: in vivo; conditions: FIG. 5D
Protocol: 6-7 week old C57BL/6 mice were purchased from Orient Bio Inc. (Seongnam, Korea). The mice were housed under specific pathogen-free conditions and provided ad libitum with a standard laboratory diet (STD). All the animal experiments were approved by the Institutional Animal Care and Use Committee (IACUC) of Ajou University (Approval No. 2017-0002). 62.5 mg of ALDARA™ cream (including 5% IMQ; Aldara, 3M Pharmaceutical LLC.) was applied for five consecutive days, resulting in symptoms similar to psoriasis. The normal group was not treated with IMQ but only injected with PBS. […] Factors such as erythema, scaling, wrinkles, and thickening were independently scored from 0 to 4: 0, none; 1, a little; 2, middle; 3, significant; 4, very prominent. Erythema, scaling, and thickness were scored under the close supervision of an experienced researcher. […]
A skin sample obtained from the dorsal lesion of each mouse was fixed in 4% paraformaldehyde solution, embedded in paraffin, and sectioned at a thickness of 7 μm on a glass slide. […] The thickness of the skin was measured using a Leica DMi8 fluorescence microscope which utilizes a Leica LAS X Hardware Configurator. IMQ-mediated inflammation in the skin was evaluated using a mouse-specific HRC/DAB Detection IHC Kit (Abcam, Cat. No. AB64259) with primary antibodies recognizing CD68, CD4, and IL-17. […]

[5] = test system: THP-1 cells; test: Cell viability assay (MTT/MTS), THP-1 cells; assay type: cell-based, human; conditions: FIG. 2C
Protocol: as §1

Row | Substance | inhibitory effect on LPS-stimulated RAW 264.7 cells [1] | cytotoxic effect in RAW264.7 cells [2] | toxicity in HEK-Blue hTLR4 cells [3] | body weight [4] | toxicity in THP-1 cells [5]
1 | PFVYLI (cell penetrating peptide) | did not show any inhibitory effect | – | – | – | –
2 | RQIKIWFQNRRMKWKKPWCKYQMLQALT [MIP2] | – | absence of a cytotoxic effect | do not show toxicity | no significant difference compared to PBS- and MTX-treated mice | does not show toxicity

Reference: US20220257782A1, “PEPTIDE THERAPEUTICS FOR AUTOIMMUNE DISEASES AND INFLAMMATORY DISEASES” (GENESEN CO., LTD., priority 2019, published 2022)
